Assay results from US11505523B2, “HDAC8 inhibitors for treating cancer” (City of Hope, priority 2013, dated 2022).

Assays:
MV4-11 cells = experiment: Proliferation of MV4-11 cells, luminescent cell viability assay; assay type: cell-based, human; details: 48-hr, luminescent cell viability assay; read-out: MV4-11 Proliferation IC50
OCI-AML3 cells = experiment: Survival/apoptosis of OCI-AML3 AML cells by Annexin V labeling; assay type: cell-based, human
[1] = system: dTomato^+/cKit^+ AML cells (CBFβ-SMMHC^+ LSCs); experiment: Ex vivo treatment of CM-induced AML cells followed by transplantation into irradiated congenic mice; assay type: in vivo
Description: FIGS. 6A-6G. […] FIG. 6A: Schematic illustration of experimental design. […] Progression of AML was monitored by engraftment of AML cells in peripheral blood (PB) over time (4, 8 weeks) and engraftment in bone marrow and spleen was analyzed 8 weeks after transplantation. A cohort of mice was monitored for AML development and disease-free survival. […] Results represent mean±SD. […] FIG. 6D: Representative FACS plots of engrafted dTomato^+/cKit^+ AML cells in the bone marrow or spleen 8 weeks after transplantation.
Ai14 Cre reporter tdTomato mice on C57BL/6 background were obtained from the Jackson Laboratory. To induce CBFβ-SMMHC expression, 4-6 week old Mx1-Cre/Cbfb^56M/+ mice were injected with 250 μg of polyinosinic-polycytidylic acid (pIpC) (InvivoGen) every 2 days for 7 doses. Similarly treated Cbfb^56M/+ littermates without Cre were used as control. Pre-leukemic cells were isolated from mice 2 weeks after the last dose of pIpC treatment. For leukemia development, induced mice were monitored up to 6 months and analyzed when moribund. Transplantation of AML cells (2×10^6 cells/mouse) was performed via tail vein injection into sub-lethally irradiated (6.5 Gy) 6-8-week-old congenic C57BL/6 mice (CD45.1^+/CD45.2^+). All mice were maintained in an AAALAC-accredited animal facility at City of Hope, and all experimental procedures involving mice were performed in accordance with federal and state government guidelines and established institutional guidelines and protocols approved by the Institutional Animal Care and Use Committee at Beckman Research Institute of City of Hope.
AML LSCs are functionally characterized by their capacity to engraft and reproduce AML disease in transplanted host. […] To test this, we made use of our murine CM-induced AML model allowing for high-level engraftment and reproducible disease upon secondary transplantation. To facilitate tracking of CM-expressing AML cells, we created Cbfb^56M/+/Mx1-Cre mice with a Cre-reporter line expressing tdTomato fluorescence protein following Cre-mediated recombination.

normal IMR-90 cells = experiment: Cytotoxicity in normal IMR-90 cells; details: result in words
HDAC10 = HDAC10 (Homo sapiens (Human), UniProt Q969S8); experiment: Inhibition of purified HDAC10; details: read-out: HDAC 10 IC50; class II
HDAC10, sequence (Q969S8 whole entry, species assumed): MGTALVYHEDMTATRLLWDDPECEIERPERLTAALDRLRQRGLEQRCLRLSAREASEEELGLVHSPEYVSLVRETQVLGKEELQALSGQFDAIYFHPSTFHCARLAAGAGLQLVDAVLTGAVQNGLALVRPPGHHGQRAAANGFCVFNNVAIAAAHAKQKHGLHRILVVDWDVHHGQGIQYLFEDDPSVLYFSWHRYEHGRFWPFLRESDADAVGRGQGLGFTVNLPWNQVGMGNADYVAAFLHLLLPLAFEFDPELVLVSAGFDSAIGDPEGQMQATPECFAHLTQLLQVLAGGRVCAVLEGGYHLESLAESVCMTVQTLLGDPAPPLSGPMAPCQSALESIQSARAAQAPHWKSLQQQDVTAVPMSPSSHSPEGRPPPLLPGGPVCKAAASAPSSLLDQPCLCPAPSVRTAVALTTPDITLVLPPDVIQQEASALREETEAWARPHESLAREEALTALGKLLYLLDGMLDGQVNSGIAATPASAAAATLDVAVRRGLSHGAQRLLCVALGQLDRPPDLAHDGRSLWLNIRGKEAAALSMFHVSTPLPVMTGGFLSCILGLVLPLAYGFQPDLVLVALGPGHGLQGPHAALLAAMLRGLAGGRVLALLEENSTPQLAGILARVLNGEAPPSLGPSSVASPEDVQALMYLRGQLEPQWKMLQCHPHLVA

Question: How did the IC50 (MV4-11 cells) turn out when `COc1ccc(/C=C/C(=O)NO)c(-c2ccc(-c3ccccc3)cc2)c1` [Compound 22d, (E)-N-Hydroxy-4-methoxy-2-(biphenyl-4-yl)cinnamide] was run?
Answer: 2480 nM

Question: And the IC50 (OCI-AML3 cells; 48-hr, Annexin V labeling, read-out: OCI-AML3 Apoptosis IC50)?
Answer: 8120 nM

Question: And the “survival of OCI-AML3 cells” value (OCI-AML3 cells; 48 h, result in words)?
Answer: decreases with increased HDAC8i concentration

Question: And the “frequencies of dTomato+/cKit+ AML cells in BM and spleen” value ([1]; 8 weeks after transplantation, vs vehicle-treated cells)?
Answer: significantly (p=0.025) reduced frequencies

Question: What about the “total numbers of dTomato+/cKit+ AML cells in BM and spleen” value ([1]; 8 weeks after transplantation, vs vehicle-treated group) of the same compound?
Answer: significantly (p=0.025) lower

Question: And the “dTomato+/cKit+ cells in the peripheral blood” value ([1]; cells treated 10 μM 48 h before transplantation)?
Answer: barely detectable

Question: And the “engraftment of dTomato+ and dTomato+/cKit+ cells” value ([1]; equal number (2×10^6) of treated AML cells transplanted)?
Answer: reduced the engraftment

Question: And the “AML onset and survival of transplanted mice” value ([1]; mouse, in vivo)?
Answer: prevented AML reoccurrence

Question: What about the survival of mice ([1]; mouse, in vivo) of the same compound?
Answer: enhanced survival

Question: What about the “cytotoxicity in normal IMR-90 cells” value (normal IMR-90 cells) of the same compound?
Answer: no significant cytotoxicity

Question: What about the IC50 (HDAC10) of the same compound?
Answer: > 20 nM
